# Laboratory results: patent publication US8394843B2, “Substituted isoindoles as glucokinase activators” (Takeda California, Inc., priority 2006, dated 2013)
# Target: T1, glucokinase (GK) (Homo sapiens, UniProt P35557)
# T1 construct: I.D. No. 1 corresponds to residues 12-465 of glucokinase; made in house; host or cells: E. coli DH10b-T1r
# T1 sequence (P35557 with tags, fused parts or gaps isoform P35557-2): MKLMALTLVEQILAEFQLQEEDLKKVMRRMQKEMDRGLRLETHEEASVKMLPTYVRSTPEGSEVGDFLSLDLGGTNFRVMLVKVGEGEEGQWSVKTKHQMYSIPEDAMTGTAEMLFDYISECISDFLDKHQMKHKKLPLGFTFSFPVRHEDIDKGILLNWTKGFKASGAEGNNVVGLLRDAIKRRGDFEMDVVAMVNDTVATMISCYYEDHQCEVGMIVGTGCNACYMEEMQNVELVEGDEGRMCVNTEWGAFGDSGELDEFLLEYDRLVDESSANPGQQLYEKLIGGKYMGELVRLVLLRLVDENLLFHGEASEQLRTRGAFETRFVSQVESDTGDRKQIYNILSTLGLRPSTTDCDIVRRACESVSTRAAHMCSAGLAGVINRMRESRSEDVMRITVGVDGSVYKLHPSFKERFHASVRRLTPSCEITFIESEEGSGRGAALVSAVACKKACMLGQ
# Experiment: enzymatic glucokinase activity assay (ATP consumption, KinaseGlo luminescence)
# Format: biochemical
# Settings: 5 mM Glucose, 5 μM ATP; for Emax: calculated maximal gain in GK enzyme activity at a saturating concentration of the compound, read-out: % ACTmax; for EC50: negative log of Kact, the concentration that displays 50% of the maximal increase in GK activity, 60 min at room temperature, read-out: pKact
# Description: The activity of compounds as glucokinase activators may be assayed in vitro, in vivo or in a cell line. Provided below is an enzymatic glucokinase activity assay.
# Purified glucokinase may be obtained as follows. DNA encoding residues 12-465 of the full-length sequence of the human enzyme may be amplified by PCR and cloned into the HindIII and EcoRI sites of pFLAG-CTC (Sigma). SEQ. I.D. No. 1 corresponds to residues 12-465 of glucokinase.
# The expression of recombinant glucokinase protein may be carried out by transformation and growth of DH10b-T1r E. coli cells incorporating the (pFLAG-CTC) plasmid in LB media. Protein expression can be induced in this system by the addition of IPTG to the culture medium.
# Recombinant protein may be isolated from cellular extracts by passage over Sepharose Q Fast Flow resin (Pharmacia). This partially purified GK extract may then be further purified by a second passage over Poros HQ10 (Applied Biosystems). The purity of GK may be determined on denaturing SDS-PAGE gel. Purified GK may then be concentrated to a final concentration of 20.0 mg/ml. After flash freezing in liquid nitrogen, the proteins can be stored at −78° C. in a buffer containing 25 mM TRIS-HCl pH 7.6, 50 mM NaCl, and 0.5 mM TCEP.
# The activation properties of compounds for GK may be determined using a black 384-well-plate format under the following reaction conditions: 25 mM Hepes pH 7.2, 25 mM NaCl, 10 mM MgCl2, 0.01% Brij35, 1 mM DTT, 5 μM ATP, 5 mM Glucose 2% DMSO. The amount of ATP consumed may be determined quantitatively by addition of equal volume of luciferase reagent (luciferase+beetle luciferin—KinaseGlo Luminescent Kinase Assay kit from Promega). The luminescence intensity may be measured by using the Analyst HT from LJL Biosystems.
# The assay reaction may be initiated as follows: 4 μl of substrate mixture (12.5 μM ATP and 12.5 mM Glucose) was added to each well of the plate, followed by the addition of 2 μl of activator (2 fold serial dilutions for 11 data points for each activator) containing 10% DMSO. 4 μL of 1.25 nM GK solution may be added to initiate the reaction. The reaction mixture may then be incubated at room temperature for 60 min, and quenched and developed by addition of 10 μL of luciferase reagent. Luminescence intensities of the resulting reaction mixtures may be measured after a 10 min incubation at room temperature. The luminescence intensity may be measured by using the Analyst HT from LJL Biosystems.
# pKact and % ACTmax values may be calculated by non-linear curve fitting of the compound concentrations and luminescence intensities to a standard inhibition/activation equation. […] “pKact” is the negative log of the Kact value; i.e., −log10 [Kact]. % Actmax represents the calculated maximal gain in GK enzyme activity at a saturating concentration of the compound. pKact and % ACTmax values for select compounds of the present invention are given in Table 1.
Emax [%],EC50 [µM],Structure (SMILES)
> 60,≤ 10,"N=C1c2ccccc2CN1C(CC1CCCCC1)C(=O)Nc1nccs1 (stereo not drawn) [Example 11, 3-cyclohexyl-2-(1-iminoisoindolin-2-yl)-N-(thiazol-2-yl)propanamide]"
50 to 60,≥ 31.6,"COc1ccc2nn(C(CC(C)C)C(=O)Nc3nccs3)cc2c1 (stereo not drawn) [Example 6, 2-(5-methoxy-2H-indazol-2-yl)-4-methyl-N-(thiazol-2-yl)pentanamide]"
> 60,12.6 to 25.1,"N=C1c2cc(F)ccc2CN1C(CC1CCCCC1)C(=O)Nc1nccs1 (stereo not drawn) [Example 12, 3-cyclohexyl-2-(6-fluoro-1-iminoisoindolin-2-yl)-N-(thiazol-2-yl)propanamide]"
> 60,≥ 31.6,"CC(C)CC(C(=O)Nc1nccs1)n1cc2cc(O)ccc2n1 (stereo not drawn) [Example 7, 2-(5-hydroxy-2H-indazol-2-yl)-4-methyl-N-(thiazol-2-yl)pentanamide]"
50 to 60,12.6 to 25.1,"Cc1c2cc(F)ccc2nn1C(CC(C)C)C(=O)Nc1nccs1 (stereo not drawn) [Example 9, 2-(5-fluoro-3-methyl-2H-indazol-2-yl)-4-methyl-N-(thiazol-2-yl)pentanamide]"
50 to 60,≥ 31.6,"CC(C)CC(C(=O)Nc1nccs1)n1cc2cc(F)ccc2n1 (stereo not drawn) [Example 3, 2-(5-fluoro-2H-indazol-2-yl)-4-methyl-N-(thiazol-2-yl)pentanamide]"
< 50,≤ 10,"Cc1c2ccccc2nn1C(CC(C)C)C(=O)Nc1nccs1 (stereo not drawn) [Example 8, 4-methyl-2-(3-methyl-2H-indazol-2-yl)-N-(thiazol-2-yl)pentanamide]"
> 60,12.6 to 25.1,"CC(C)CC(C(=O)Nc1ccccn1)N1C(=O)c2ccccc2C1=O (stereo not drawn) [Example 14, 2-(1,3-dioxoisoindolin-2-yl)-4-methyl-N-(pyridin-2-yl)pentanamide]"
> 60,≥ 31.6,"CC(C)CC(C(=O)Nc1nccs1)n1cc2ccccc2n1 (stereo not drawn) [Example 2, 2-(2H-indazol-2-yl)-4-methyl-N-(thiazol-2-yl)pentanamide]"
> 60,≤ 10,"CC(C)CC(C(=O)Nc1nccs1)N1C(=O)c2ccccc2C1=O (stereo not drawn) [Example 13, 2-(1,3-dioxoisoindolin-2-yl)-4-methyl-N-(thiazol-2-yl)pentanamide]"
< 50,≤ 10,"CC(C)CC(C(=O)Nc1nccs1)n1cc2ccc([N+](=O)[O-])cc2n1 (stereo not drawn) [Example 4, 4-methyl-2-(6-nitro-2H-indazol-2-yl)-N-(thiazol-2-yl)pentanamide]"
< 50,12.6 to 25.1,"CC(C)CC(C(=O)Nc1nccs1)n1cc2ccc(S(C)(=O)=O)cc2n1 (stereo not drawn) [Example 5, 4-methyl-2-(6-(methylsulfonyl)-2H-indazol-2-yl)-N-(thiazol-2-yl)pentanamide]"
